Experimental data reported in article PMC6013774 (Chemical Science, 2016).

Target: T1, AhbD (Methanosarcina barkeri, UniProt Q46CH7)
T1 sequence (Q46CH7 1-349): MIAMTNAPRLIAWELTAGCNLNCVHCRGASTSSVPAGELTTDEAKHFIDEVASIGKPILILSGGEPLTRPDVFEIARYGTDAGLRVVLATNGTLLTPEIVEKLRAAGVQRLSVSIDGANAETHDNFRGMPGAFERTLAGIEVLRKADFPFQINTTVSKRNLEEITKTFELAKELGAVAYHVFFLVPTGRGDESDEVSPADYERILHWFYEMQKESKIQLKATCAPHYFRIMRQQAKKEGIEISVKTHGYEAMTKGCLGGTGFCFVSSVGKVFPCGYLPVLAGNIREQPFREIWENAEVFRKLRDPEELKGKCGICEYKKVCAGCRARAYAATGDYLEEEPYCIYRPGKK
Assay: tryptophan fluorescence quenching
Type: binding

## CC1=C(CCC(=O)O)c2cc3nc(cc4[nH]c(cc5[nH]c(cc1n2)c(C)c5CCC(=O)O)c(CCC(=O)O)c4C)C(CCC(=O)O)=C3C [COPRO III]
  Kd: 33.9 ± 3.9 µM
